Conditions in one series: not given
The melting point is the temperature of the solid-liquid transition. Turning to `Cc1c(Cl)c(C)c(Cl)c(Cl)c1Cl`, the melting point was 223 °C. `Clc1ccc(Oc2cc(Cl)ccc2Cl)cc1` returned a log10 vapour pressure (mmHg) of -3.76. As to `CNC[C@H](O)c1cccc(O)c1.Cl`, the melting point came out at 142 °C. The compound `COP(=O)(OC)SCn1c(=O)oc2cc(Cl)cnc21` came in with a log10 vapour pressure (mmHg) of -7.44 and a melting point of 89 °C. The like results for `COC(=O)C(C)N(C(=O)c1ccco1)c1c(C)cccc1C` (stereo not drawn) were, in that order, -6.28 and 70 °C. The boiling point is the temperature at which the vapour pressure of the liquid equals the pressure above it. Regarding `ClCc1ccccc1`, the boiling point was determined as 179 °C, the log10 vapour pressure (mmHg) was found to be 0.0899, the melting point was -45 °C and the ready biodegradability entry is given as “readily biodegradable”. Take `CC(C)N=C=NC(C)C`: the boiling point stood at 147 °C.

Regarding `O=[N+]([O-])c1c(O)c(Cl)cc(Cl)c1Cl`, the melting point turned out to be 92.5 °C. The same measure, in the same setting: the value for `CNC1(c2ccccc2Cl)CCCCC1=O.Cl` (stereo not drawn) was 262 °C. For the compound `CCCCCCC(CCCCCC)CCCCCC`, the melting point is -28.3 °C. Take `O=C1c2ccccc2C(=O)c2c1cc(S(=O)(=O)[O][Na])c(O)c2O`: the ready biodegradability entry was “not readily biodegradable”. `COC(=O)[C@]12OC[C@]34[C@H]([C@@H](O)[C@@H]1O)[C@@]1(C)CC(=O)C(O)=C(C)[C@@H]1C[C@H]3OC(=O)[C@H](OC(=O)/C=C(\C)C(C)C)[C@@H]24`: the melting point amounted to 226 °C. Turning to `CC(C)(C)CBr`, the boiling point was 106 °C. Turning to `Ic1cc(I)c(I)cc1I`, the melting point turned out to be 254 °C. Still for that read-out and setting: the same measure for `COc1ccc(/C=C/C(=O)Nc2ccccc2C(=O)O)cc1OC`: 212 °C. As to `CCOC(=O)CC#N`, the boiling point turned out to be 210 °C, the log10 vapour pressure (mmHg) is -1.41, the melting point was -22.5 °C and the ready biodegradability entry is on record as “readily biodegradable”. Compound `Nc1cccc2ncccc12` had a boiling point of 310 °C, a log10 vapour pressure (mmHg) of -4.77 and a melting point of 110 °C.

The compound `OC(CCN1CCCCC1)(c1ccccc1)c1ccccc1` yielded a melting point of 120 °C. Turning to `O=c1n(CC2CO2)c(=O)n(CC2CO2)c(=O)n1CC1CO1` (stereo not drawn), the ready biodegradability entry is “not readily biodegradable”.

`CC1=NCCS1` came in with a boiling point of 145 °C and a melting point of -101 °C. For the compound `O=c1c(O)c(-c2ccc(O)c(O)c2)oc2cc(O)cc(O)c12`, the melting point came to 316 °C.

For `CN(C)S(=O)N(C)C`, the boiling point came to 209 °C and the melting point stood at 31 °C. In turn, `CCCCCCCCCCCCCCCCCCCCCCC` registered a boiling point of 380 °C, a log10 biodegradation half-life (days) of 2.16, a log10 vapour pressure (mmHg) of -4.76 and a melting point of 47.6 °C. Also, the ready biodegradability result was “readily biodegradable”. As to `CC(CCc1ccccc1)NC(C)C(O)c1ccc(O)cc1` (stereo not drawn), the melting point came out at 112 °C. Consider `CC(=O)OC(C)C`, for which the boiling point is 88.6 °C, the log10 Henry constant (atm·m³/mol) was -3.56, the log10 Koa was determined as 2.93 and the log10 vapour pressure (mmHg) is 1.78. Further, the melting point was -73.4 °C and the ready biodegradability entry is reported as “readily biodegradable”. With `Cc1ccc2[nH]c3ccccc3c2c1`, the boiling point is 365 °C and the melting point was 208 °C. In turn, `CCC(N)C(O)c1ccccc1` (stereo not drawn) yielded a melting point of 79.5 °C. Take `CCOC(=O)C(C)C(=O)OCC`: the boiling point was 201 °C. On to `OCC(CO)(CBr)CBr`, for which the melting point stood at 113 °C and the ready biodegradability entry is reported as “not readily biodegradable”. Consider `NN=C(c1ccccc1)c1ccccc1`, for which the melting point was found to be 96.5 °C. In turn, `CC(=O)F` had a boiling point of 20.8 °C and a melting point of -84 °C. For `COc1cc2c(c(O)c1OC)CCN(C)[C@H]2C`, the melting point is 152 °C. For the compound `O=C1OC(=O)c2c1ccc(Cl)c2Cl`, the boiling point was found to be 329 °C and the melting point came out at 121 °C.

Consider `CCOP(=S)(OCC)Oc1ccc(S(C)(=O)=O)cc1`, for which the log10 Koc (L/kg) came out at 2.17. `NS(=O)(=O)c1ccc(SCCO)cc1` gave a melting point of 112 °C. Compound `CC(Cl)C(Cl)CCl` (stereo not drawn) gave a boiling point of 168 °C. As for `FC(F)(F)C(Cl)C(F)(F)F`, the boiling point came out at 14.1 °C and the melting point was -120 °C.

With `CC(C)OC(=O)COc1cc(Cl)c(Cl)cc1Cl`, the melting point is 45 °C. `NNC(=O)c1ccc(Br)cc1` had a melting point of 166 °C. With `Nc1ccc(S(=O)c2ccc(N)cc2)cc1`, the melting point was found to be 175 °C. As to `CCN(CC)C(=O)CSc1ccc(Cl)nn1`, the melting point was determined as 97 °C and the ready biodegradability entry is reported as “not readily biodegradable”.

The compound `[N-]=[N+]=NCC(=O)N[C@H](CO)[C@H](O)c1ccc([N+](=O)[O-])cc1` yielded a melting point of 107 °C. In turn, `CCOc1ccc(I)cc1` registered a boiling point of 250 °C and a melting point of 29 °C. Consider `OC1(c2ccc(Cl)c(C(F)(F)F)c2)CCN(CCCC(c2ccc(F)cc2)c2ccc(F)cc2)CC1`, for which the melting point was 106 °C. Take `CCCCCCOC(C)=O`: the boiling point turned out to be 172 °C, the log10 Henry constant (atm·m³/mol) is -3.28, the log10 Koa was 4.58 and the log10 vapour pressure (mmHg) worked out at 0.122. The compound further came in with a melting point of -80.9 °C.

`O=c1ccocc1` gave a boiling point of 212 °C and a melting point of 32.5 °C. Compound `CCCCCC[C@H](C)S` gave a log10 vapour pressure (mmHg) of -0.147. Consider `C=C/C=C\CC1=C(C)[C@@H](OC(=O)[C@@H]2[C@@H](C=C(C)C)C2(C)C)CC1=O`, for which the log10 vapour pressure (mmHg) was -4.69. Consider `C[C@@H]1C[C@H]2CC[C@H](O2)[C@H](C)C(=O)O[C@@H](C)C[C@@H]2CC[C@@H](O2)[C@@H](C)C(=O)O[C@H](C)C[C@H]2CC[C@H](O2)[C@H](C)C(=O)O[C@@H](C)C[C@@H]2CC[C@@H](O2)[C@@H](C)C(=O)O1`, for which the melting point turned out to be 148 °C. Compound `N#Cc1ccccn1` displayed a boiling point of 224 °C and a melting point of 29 °C. Consider `CCN(CC)CCOC(=O)[C@@H]1N2C(=O)[C@@H](NC(=O)Cc3ccccc3)[C@H]2SC1(C)C.I`, for which the melting point was found to be 178 °C. `CCN(CC)CC(=O)OCC(=O)[C@@]1(O)CC[C@H]2[C@@H]3CCC4=CC(=O)C=C[C@]4(C)[C@H]3[C@@H](O)C[C@@]21C` gave a melting point of 176 °C. Compound `Nc1ccc(S(=O)(=O)c2ccc([N+](=O)[O-])cc2)cc1` gave a melting point of 170 °C.

The same series, now with this note: fish.
On to `Clc1ccc(C(c2ccc(Cl)cc2)C(Cl)(Cl)Cl)cc1`, for which the log10 BCF was 4.29 and the log10 biotransformation half-life (days) worked out at 1.93.

`Clc1ccc(Oc2cc(Cl)c(Cl)cc2Cl)c(Cl)c1` had a log10 biotransformation half-life (days) of 2.02.

`Cc1ccc(C)c(C)c1C` had a log10 biotransformation half-life (days) of 1.17.

With `OCC(CO)(CBr)CBr`, the log10 BCF turned out to be 0.68 and the log10 biotransformation half-life (days) was -1.4.

Source of the values: the OPERA property sets (Mansouri et al. 2018).
